In ChEMBL document CHEMBL1147389, “Two bioactive pterocarpans from Erythrina burana” (J Nat Prod, 1993):

Experiments:
CHO [1] = test: Cytotoxicity against p-glycoprotein overexpressing CHO cells; type: cell-based; conditions: Cricetulus griseus
P388 = test: Cytotoxicity against mouse P388 cells; type: functional, cell-based
Saccharomyces cerevisiae [2] = test: DNA damaging activity against RS322 YK rad52 DNA repair gene deficient Saccharomyces cerevisiae mutant assessed as drug level required to produce 12 mm zone of inhibition after 48 hrs; type: functional
Saccharomyces cerevisiae [3] = test: DNA damaging activity against RS188N rad DNA repair gene expressing Saccharomyces cerevisiae assessed as drug level required to produce 12 mm zone of inhibition after 48 hrs; type: functional
Saccharomyces cerevisiae [4] = test: DNA damaging activity against RS321 […] DNA repair gene deficient Saccharomyces cerevisiae mutant assessed as drug level required to produce 12 mm zone of inhibition after 48 hrs; type: functional
Saccharomyces cerevisiae [5] = test: DNA damaging activity against RS167 N rad6 DNA repair gene deficient Saccharomyces cerevisiae mutant assessed as drug level required to produce 12 mm zone of inhibition after 48 hrs; type: functional
CHO [6] = test: Cytotoxicity against CHO cells; type: cell-based; conditions: Cricetulus griseus

SMILES	IC50 (CHO [1])	IC50 (P388)	IC12 (Saccharomyces cerevisiae [2])	IC12 (Saccharomyces cerevisiae [3])	IC12 (Saccharomyces cerevisiae [4])	IC12 (Saccharomyces cerevisiae [5])	IC50 (CHO [6])
COc1ccc2c(c1CC=C(C)C)O[C@H]1c3ccc(O)cc3OC[C@@]21O [ERYTHRABYSSIN I]	4 µM	> 10 µM	80 µg/mL	330 µg/mL	108 µg/mL	540 µg/mL	> 20 µM
CC(C)=CCc1c(O)ccc2c1O[C@H]1c3ccc(O)cc3OC[C@@H]21 [PHASEOLLIDIN]	7.6 µM	> 10 µM	500 µg/mL	5500 µg/mL	400 µg/mL	> 1000 µg/mL	4 µM
